Laboratory results reported in patent US12376589B2, “Chryseobacterium insect inhibitory microbial compositions and methods of making and using” (priority 2021, dated 2025).
“Also recorded” adds a separate entry of the source. Read-outs that look alike come from different tables or passages of the source.

What was measured:
[1] = test system: Heliothis virescens (tobacco budworm); assay: whole plant or invertebrate
Procedure: (§1) Lepidopteran bioassays. Lepidopteran bioassays were performed at Benzon Research, Inc. (Carlisle, PA). 3,3′-Diindolylmethane samples were solubilized in dimethyl sulfoxide (DMSO). Samples were then frozen and shipped to Benzon. Samples were resuspended with 9× volumes of water before application to the assay well. The final DMSO concentration in the assay well was 2%. PLU6 extract samples were prepared as a series of three 1:5 dilutions in dimethyl sulfoxide. Samples were then further diluted with fresh NYSM broth, then shipped to Benzon Research for use in a diet overlay assay. Assays were performed using neonate larvae of 14 different Lepidopteran species (Anticarsia gemmatalis (velvetbean caterpillar), Diatraea grandiosella (southwestern corn borer), Diatraea saccharalis (sugarcane borer), Ostrinia nubilalis (European corn borer), Trichoplusia ni (cabbage looper), Chrysodeixis includens (soybean looper), Spodoptera exigua (beet armyworm), Spodoptera frugiperda (fall armyworm), Spodoptera eridania (southern armyworm), Chloridia virescens (tobacco budworm), Helicoverpa zea (corn earworm), Agrotis ipsilon (black cutworm), Cydia pomonella (codling moth), Plutella xylostella (diamondback moth) with an N=16 or N=32, apart from P. xylostella, for which third instar larvae were used. A diet-surface overlay format was used, in which 500 microliters of diet was placed in each well. One hundred microliters of sample was then pipetted into each well and allowed to dry. A DMSO control was included with each set of samples. An internal Btk (Bacillus thurengiensis kurstaki) standard at a concentration of 1000 ppm was used as a positive control, and water was used as a negative control.
(§2) Experiments were conducted in which mortality of lepidopteran larvae was measured after 7 days of diet overlay treatment with 3,3′-diindolylmethane at the concentrations indicated in Table 3. Mean mortalities and standard deviations were calculated from three independent experiments (each N=16). For each experiment, mortalities were corrected using Abbott's formula (Abbott (1987) “Method of computing the effectiveness of an insecticide” J. American Mosquito Control Association 2: 302-03, incorporated herein by reference). For all species except Plutella xylostella, neonates were used. For P. xylostella, third instar larvae were used. The positive control used was 1000 ppm of Bacillus thuringiensis kurstaki.

[2] = test system: Spodoptera frugiperda (fall armyworm); assay: whole plant or invertebrate
Procedure: as §1, §2

[3] = test system: Trichoplusia ni (cabbage looper); settings: for Mortality, Trichoplusia ni (cabbage looper): 7 days diet overlay, neonates, mean of three experiments (each N=16), Abbott's formula; for Mortalities (%) after 7 days of treatment (Abbott’s Correction), CL: Trichoplusia ni (cabbage looper)
Procedure: as §1, §2

[4] = test system: Ostrinia nubilalis (European corn borer); assay: Lepidopteran diet overlay bioassay
Procedure: as §1, §2

[5] = test system: Plutella xylostella (diamondback moth); assay: Lepidopteran diet overlay bioassay
Procedure: as §1, §2

[6] = test system: Anticarsia gemmatalis (velvetbean caterpillar); assay: whole plant or invertebrate
Procedure: as §1

[7] = test system: Spodoptera exigua (beet armyworm); assay: whole plant or invertebrate
Procedure: as §1

[8] = test system: Drosophila suzukii (spotted wing Drosophila); assay: Drosophila suzukii diet incorporation assay; type: in vivo; settings: 100, 500, 1000 μg/mL
Procedure: During the development of embodiments of the technology described herein, experiments were conducted to assess the activity of 3,3′-diindolylmethane against Drosophila suzukii. […] A1X=100 μg/mL; A5X=500 μg/mL; A10X=1000 μg/mL. Each concentration was tested with 10 vials containing 20 D. suzukii L2 larvae. “Dpi” indicates days post infestation (0 dpi is the day of egg-laying).

[9] = Heliothis virescens, 168 h, read-out: Mortalities (%) after 7 days of treatment (Abbott’s Correction), TBW
[10] = Heliothis virescens, 168 h, read-out: Mortality, Heliothis virescens (tobacco budworm)
[11] = Spodoptera frugiperda, 168 h, read-out: Mortalities (%) after 7 days of treatment (Abbott’s Correction), FAW
[12] = Spodoptera frugiperda, 168 h, read-out: Mortality, Spodoptera frugiperda (fall armyworm)
[13] = Ostrinia nubilalis, 168 h, read-out: Mortality, Ostrinia nubilalis (European corn borer)
[14] = Plutella xylostella, 168 h, read-out: Mortalities (%) after 7 days of treatment (Abbott’s Correction), DBM
[15] = Plutella xylostella, 168 h, read-out: Mortality, Plutella xylostella (diamondback moth)
[16] = Anticarsia gemmatalis, 168 h, read-out: Mortalities (%) after 7 days of treatment (Abbott’s Correction), VBC
[17] = Spodoptera exigua, 168 h, read-out: Mortalities (%) after 7 days of treatment (Abbott’s Correction), BAW

## c1ccc2c(Cc3c[nH]c4ccccc34)c[nH]c2c1 [3,3′-diindolylmethane, 3,3′-Diindolylmethane]
[1]; [9]
  mortality at 156.25 µg/mL: 74.2%
  mortality at 625 µg/mL: 74.2%
  mortality at 2500 µg/mL: 87.1%
[1]; [10]
  mortality at 9.77 µg/mL: 3.16%
  mortality at 39.06 µg/mL: 40.9%
  mortality at 156.25 µg/mL: 85.2%
  mortality at 625 µg/mL: 93.8%
  mortality at 2500 µg/mL: 83.3%
[1]; diet overlay
  activity against tobacco budworm: active; also recorded: dose-dependent activity
[2]; [11]
  mortality at 156.25 µg/mL: 40%
  mortality at 625 µg/mL: 63.3%
  mortality at 2500 µg/mL: 96.7%
[2]; [12]
  mortality at 9.77 µg/mL: 4.1%
  mortality at 39.06 µg/mL: 2.15%
  mortality at 156.25 µg/mL: 79%
  mortality at 625 µg/mL: 85.1%
  mortality at 2500 µg/mL: 95.7%
[2]; diet overlay
  activity against Spodoptera frugiperda: active; also recorded: dose-dependent activity
[3]; 39.06 μg/mL
  Mortality, Trichoplusia ni (cabbage looper): 3.00%
[3]; 156.25 μg/mL
  Mortality, Trichoplusia ni (cabbage looper): 22.95%
[3]; 156.25 μg/mL, diet overlay
  Mortalities (%) after 7 days of treatment (Abbott’s Correction), CL: 41.4%
[3]; 625 μg/mL
  Mortality, Trichoplusia ni (cabbage looper): 44.60%
[3]; 625 μg/mL, diet overlay
  Mortalities (%) after 7 days of treatment (Abbott’s Correction), CL: 72.4%
[3]; 2500 μg/mL
  Mortality, Trichoplusia ni (cabbage looper): 93.25%
[3]; 2500 μg/mL, diet overlay
  Mortalities (%) after 7 days of treatment (Abbott’s Correction), CL: 93.1%
[3]; diet overlay
  activity against Trichoplusia ni: active; also recorded: dose-dependent activity
[4]; [13]
  mortality at 9.77 µg/mL: 2.08%
  mortality at 39.06 µg/mL: 2.08%
  mortality at 156.25 µg/mL: 4.17%
  mortality at 625 µg/mL: 6.25%
  mortality at 2500 µg/mL: 4.17%
[4]; diet overlay
  activity against O. nubilalis: low or not observed
[5]; [14]
  mortality at 156.25 µg/mL: 19.4%
  mortality at 625 µg/mL: 6.5%
  mortality at 2500 µg/mL: 19.4%
[5]; [15]
  mortality at 9.77 µg/mL: 1.01%
  mortality at 39.06 µg/mL: 1.07%
  mortality at 156.25 µg/mL: 7.39%
  mortality at 625 µg/mL: 15.7%
  mortality at 2500 µg/mL: 43.4%
[5]; diet overlay
  activity against P. xylostella: low or not observed
[6]; [16]
  mortality at 156.25 µg/mL: 100%
  mortality at 625 µg/mL: 70%
  mortality at 2500 µg/mL: 96.7%
[6]; diet overlay
  activity against Anticarsia gemmatalis: active; also recorded: dose-dependent activity
[7]; [17]
  mortality at 156.25 µg/mL: 71.9%
  mortality at 625 µg/mL: 93.8%
  mortality at 2500 µg/mL: 71.9%
[7]; diet overlay
  activity against Spodoptera exigua: active; also recorded: dose-dependent activity
[8]
  egg-to-adult survival: not affected
  insecticidal activity against spotted wing Drosophila: did not display insecticidal activity
[8]; L2 larvae, one-way ANOVA
  eclosion rate: not affected
  pupation rate: not affected
